Laboratory results from ChEMBL document CHEMBL2429793, “Potent cytotoxic flavonoids from Iranian Securigera securidaca” (Med Chem Res, 2013).
Values after ≈ are worked out from the molar mass of the structure shown.

Legend:
NIH3T3 = assay: Cytotoxicity against mouse NIH/3T3 cells after 96 hrs by MTT assay; format: cell-based; conditions: NIH3T3, 96 h
Caco-2 = assay: Cytotoxicity against human Caco2 cells after 48 hrs by MTT assay; format: functional, cell-based; conditions: Caco-2, 48 h
T47D = assay: Cytotoxicity against human T47D cells after 48 hrs by MTT assay; format: functional, cell-based
HCT-116 = assay: Cytotoxicity against human HCT116 cells; format: functional, cell-based
Bel-7402 = assay: Cytotoxicity against human Bel7402 cells; format: functional, cell-based
HT-29 = assay: Cytotoxicity against human HT-29 cells after 48 hrs by MTT assay; format: functional, cell-based; conditions: HT-29, 48 h

Compound | IC50 (NIH3T3) | IC50 (Caco-2) | IC50 (T47D) | IC50 (HCT-116) | IC50 (Bel-7402) | IC50 (HT-29)
CN(Cc1cnc2nc(N)nc(N)c2n1)c1ccc(C(=O)N[C@@H](CCC(=O)O)C(=O)O)cc1 [METHOTREXATE] | 0.24 µg/mL (≈ 0.528 µM) |  |  |  |  | 
COc1cc(-c2oc3cc(O)cc(O)c3c(=O)c2O[C@@H]2O[C@H](CO)[C@@H](O)[C@H](O)[C@H]2O[C@@H]2O[C@@H](C)[C@H](O)[C@@H](O)[C@H]2O)ccc1O | > 200 µg/mL | 2.47 µg/mL (≈ 3.95 µM) | 0.003 µg/mL (≈ 0.0048 µM) | 72 µM | 74.4 µM | 
O=C(/C=C/c1ccc(O)cc1)c1c(O)cc(O)cc1O[C@@H]1O[C@H](CO)[C@@H](O)[C@H](O)[C@H]1O | > 200 µg/mL | 8.45 µg/mL (≈ 19.5 µM) | > 200 µg/mL |  |  | 
O=c1c(-c2ccc(O[C@@H]3O[C@H](CO)[C@@H](O)[C@H](O)[C@H]3O)c(O)c2)coc2cc(O)cc(O)c12 | > 200 µg/mL | 0.006 µg/mL (≈ 0.0134 µM) | 0.169 µg/mL (≈ 0.377 µM) |  |  | 0.009 µg/mL (≈ 0.0201 µM)
